Measured values from patent US7714173B2, “Method for purifying terephthalaldehyde” (LG Chem, Ltd., priority 2006, dated 2010).
≈ marks a conversion by molar mass, not a printed value.

How the values were obtained:
[1] = physchem
[2] = Stability of terephthalaldehyde in the dissolving solvent; assay type: physicochemical
Excerpt: In a method for purifying terephthalaldehyde which comprises dissolving crude terephthalaldehyde in a solvent and then re-crystallizing the solution, using an anti-solvent, the present invention is characterized by using dimethylsulfoxide as the solvent. In the method for purifying terephthalaldehyde according to the present invention, usual alcohols or ethers may be used as a solvent dissolving terephthalaldehyde. However, dimethylsulfoxide according to the present invention has more excellent solubility of terephthalaldehyde and major impurities than those of the alcohols or the ethers, and may prepare terephthalaldehyde in a higher yield and purity.

[3] = Solubility of terephthalaldehyde and major impurities in water and dimethylsulfoxide; conditions: solvent H2O, measured at 25° C.
[4] = 25 °C, organic solvent or mixture

Which results are given for Oc1ccc(O)cc1 [HQ, hydroquinone]?
solubility [1, 4]: 1000 mg/mL (≈ 9080 mM); solubility ([1]; 25 °C, water): 20 mg/mL (≈ 182 mM)

For O=Cc1ccc(C=O)cc1 [terephthalaldehyde], which “Stability in alcohols such as methanol” value ([2]; alcohols such as methanol as solvent) is on record?
Its value is “changed into a material such as acetal”.

What about the Stability in dimethylsulfoxide ([2]; dimethylsulfoxide as solvent) of the same molecule?
The Stability in dimethylsulfoxide was “such change is not occurred”.

With O=C(O)c1ccc(C(=O)O)cc1 [TPA, terphthalic acid] as the molecule, how does the “Solubility in H2O” value [3] read?
Its value is less than 1.67 mg/mL.

Which results are given for O=Cc1ccc(O)cc1 [4-HBA, 4-hydroxybenzaldehyde]?
solubility [1, 4]: 1000 mg/mL (≈ 8190 mM); solubility ([1]; 25 °C, water): 2.5 mg/mL (≈ 20.5 mM)

With O=Cc1ccc(C(=O)O)cc1 [4-CBA, 4-carboxybenzaldehyde] as the molecule, how does the solubility ([1]; dimethylsulfoxide (DMSO), 25 °C, organic solvent or mixture) read?
The solubility was 1000 mg/mL (≈ 6660 mM).

What about the solubility ([1]; water, 25 °C) of the same molecule?
Its solubility is less than 1.67 mg/mL.
